How the values were obtained:
[1] = system: rabbit antisera against the hapten sulfathiazole (STZ), capping antibody; test: Biphasic extraction assay: fluorescence of CHCl3 phase after dye extraction from M7-A1@B suspensions in raw milk; format: binding
Experimental: (§1) Capping of the material was performed following the same conditions as for the preparation of M4-A1 @B, but in this case 1 mg of the mesoporous silica was suspended in 450 μL of PBS containing 360 ppm of BODIPY-PEG and 2 μL of the serum for 30 min. Thereafter, 50 μL of BSA solution (5%) were added to the suspensions and stirred for another 1.5 h. […] Before centrifuging the suspension in the last washing cycle, it was divided into 10 fractions, which were dried separately for 1 h in the vacuum at room temperature and stored in the fridge, yielding 10 fractions of ca. 100 μg of M7-A1@B.
Next, the effect of the concentration of STZ and SPY was studied. For this purpose, we repeated the procedure but added different concentrations of the corresponding sulfonamide into each fraction and took an aliquot from the chloroform phase after 10 min of reaction (FIG. 10). In this case, milk stored in the fridge for 5 and 7 d was used. It is obvious that a highly sensitive response could be found in both cases, with an LOQ of 0.5±0.1 ppb and an IC50 of 0.8±0.1 ppb for STZ. For SPY, both the fluorescence increase and the sensitivity are lower (LOQ: 4.6±2.2 ppb, IC50: 16.2±6.9 ppb).
The red points were classified as outliers and not considered in the fit (N=2, only one repetition shown).
The sensitivity could further be improved by increasing the number of washing cycles of the material before use, although the fluorescence enhancement is lower due to partial dye removal during continued washing. […] Furthermore, the amount of dye released in the working range of the assay at lower STZ concentrations (100 ppt) is at least 100 times higher, preferably 200-times higher than that of antibody displaced, decreasing to 80-times at concentrations higher than 50 ppb, which is a remarkable sign of signal amplification especially in the desired low-concentration range.

[2] = system: rabbit antisera against the hapten sulfathiazole (STZ), capping antibody; test: Fluorescence of supernatants of M7-A1@B (BODIPY-PEG-loaded, antibody-gated) suspensions in milk; format: binding; conditions: M7-A1@B suspension in milk, 10 min, 535 nm (λexc=515 nm), logistic fit
Experimental: as §1
In an attempt to avoid the extraction process, and with the aim to compare the effect of different dyes to M4-A1 @B, respectively, first of all the material M7-A1@B was tested in absence and in presence of several amounts of STZ following similar a procedure as explained previously. For that purpose, two independent experiments were performed, using in one case milk provided from FOSS stored in the fridge (6 d) and fresh milk from Poland (1 d in the fridge). […] Then, 20 μL of STZ solutions of different concentrations were added to the rest of the fractions (80 μL), the vials were shaken in the thermomixer at 800 rpm for 10 min, centrifuged and the fluorescence of the supernatants measured at 535 nm with λexc=515 nm (FIG. 9).

[3] = system: rabbit antisera against the hapten sulfathiazole (STZ), capping antibody; test: Lateral flow test strips spotted with M4-A1@B, developed in raw milk spiked with STZ, fluorescence reader; format: binding; conditions: M4-A1@B on nitrocellulose strips, ratio FB/(FA+FB) with lateral flow reader, data considerably noisy
Text: As explained above, after development the strips show two different zones, a first one (zone A) at which the sensing material (indicator reservoir) has been deposited, and a second one (zone B) in which the released dye is collected that could travel with the solvent front (see FIGS. 2, 7).
In case of absence of a sulfonamide, the second zone (zone B in FIG. 7) should show minimum signal. In case of presence, the fluorescence in that zone should correlate with analyte concentration. The amount of dye released can be quantified with a fluorescence reader with appropriate excitation and emission wavelengths or by taking pictures under proper light excitation conditions. Strips were prepared using a Hi-Flow nitrocellulose paper from Millipore®. […]
Afterwards, the strips were dipped into 150 μL of raw milk spiked with various amounts of STZ, developed and let dried at room temperature. […] Afterwards, the fluorescence histograms were registered with a lateral flow reader and a home-made housing equipped with an LED (λexc 505 nm) as excitation source and filters (532 nm cut-off and 550 nm long-pass) that can be fitted to a conventional digital camera. […] FIG. 6 c) (luminance of dye released in second zone and FIG. 6 d) (ratio of luminance) allows to compare the reader results with those obtained by extracting the luminance from images taken with a camera. […]

[4] = system: rabbit antisera against the hapten sulfathiazole (STZ), capping antibody; test: Fluorescence of supernatants of M4-A1@B (SRB-loaded, antibody-gated MCM-41) suspensions after adding STZ prepared in milk; format: binding; conditions: M4-A1@B suspension in PBS, STZ solutions prepared in milk, λem=585 nm, λexc=560 nm, logistic fit
Experimental: The pores of the particles were filled with the dye sulforhodamine B (SRB). With the aim of loading the maximum amount of dye into the MCM-41 scaffold, a solution of the dye SRB sodium salt (2 mmol L^−1) was prepared in acetonitrile. Then, 2 portions of 12.0 mL were added to 300 mg of each MCM-41 nano- or microparticle material, yielding a suspension with a concentration of 0.8 mmol dye (g solid)^−1. The suspension was stirred for 24 h at room temperature. Two fractions of each type of material (2×40 mL) were centrifuged (5 min at 6000 rpm) and concentrated in a final volume of 1.5 mL. Thereafter, volumes of 0.14 mL and 0.7 mL of hapten solution (0.02 and 0.01 mmol) in DMF were added, arriving at final suspensions of 0.2 and 0.1 mmol (g solid)^−1. The resulting suspensions were stirred for 5.5 h at room temperature. Finally, the suspensions were centrifuged (5 min at 6000 rpm), and the solids obtained were washed with acetonitrile (0.75 mL), isolated by centrifugation, and dried at 35° C. in vacuum during 12 h. […]
The fluorescence enhancement caused by STZ at different concentrations was assessed in milk as well. […] Then, 6 μL of STZ solutions of different concentrations were added to the other fractions, the vials shaken by hand for 20 s and centrifuged before measuring the fluorescence of the supernatants in a fluorometer (λem=585 nm, λexc=560 nm).

[5] = Dye partitioning from water/milk to CHCl3; format: physicochemical; conditions: phase transfer from water/milk to CHCl3
Experimental: as §1

[6] = M7-A1@B in raw milk, CHCl3 phase, 10 min reaction, 538 nm (λexc=515 nm)
[7] = M7-A1@B, increased number of washing cycles of the material before use

Row | IC50 [1, 6] | IC50 [1, 7] | IC50 [2] | IC50 [3] | Compound | LOQ [1, 6] | LOQ [1, 7] | limit of quantification (LOQ) [2] | IC20, i.e. limit of quantification (LOQ) [4] | IC50 [4] | dye partitioning coefficient [5]
1 | 16.2±6.9 ppb | 4.4±1.7 ppb | – | – | Nc1ccc(S(=O)(=O)Nc2ccccn2)cc1 [SPY, sulfapyridine] | 4.6±2.2 ppb | 0.78±0.38 ppb | – | – | – | –
2 | 0.8±0.1 ppb | 0.28±0.15 ppb | 1.5±1.4 ppb | below 1 ppb | Nc1ccc(S(=O)(=O)Nc2nccs2)cc1 [STZ, sulfathiazole] | 0.5±0.1 ppb | 0.02±0.01 ppb | 65±18 ppt | 87±8 ppb | 172±12 ppb | –
3 | – | – | – | – | CCN(CC)c1ccc2c(-c3ccc(S(=O)(=O)O)cc3S(=O)(=O)[O-])c3ccc(=[N+](CC)CC)cc-3oc2c1 [sulforhodamine B] | – | – | – | – | – | too low to undergo efficient phase transfer

Reference: patent US20200124597A1, “INDICATOR RELEASE SYSTEM FOR THE DETECTION OF AN ANALYTE IN A FOODSTUFF, TEST STRIP THEREFOR, AND ANALYSIS METHOD” (Bundesrepublik Deutschland, vertreten durch die …, priority 2017, published 2020)
